Legend:
[1] = target: T1, LFA-1 (CD18/CD11a) binding to ICAM-1 (Homo sapiens, UniProt P05107+P20701); test: Assay to Determine Inhibition of LFA-1 Binding to ICAM-1; conditions: immunoaffinity purified LFA-1 on plate-bound sICAM-1, 37° C. for 1 h, dose-response curve
T1 construct: endogenous in cells; host or cells: LFA-1: endogenous, immunopurified from human JY or SKW3 cell lysates. sICAM-1: made in house, secreted from transfected CHO DUX cells
Source text: This assay protocol is designed to study the direct antagonism, by a test compound, of the interaction of the CAM, ICAM-1 with the Leukointegrin CD18/CD11a (LFA-1).
After collection and neutralization of fractions from the TS2/4 column, samples are pooled and precleared with Protein G agarose.
An expression vector is created with a hamster dihydrofolate reductase gene, a neomycin-resistance marker, and the coding region of the sICAM-1 construct described above, along with the promoter, splice signals, and polyadenylation signal of the SV40 early region. The recombinant plasmid is transfected into CHO DUX cells using standard calcium phosphate methods. Cells are passaged in selective media (G418) and colonies secreting sICAM-1 are amplified using methotrexate. sICAM-1 is purified from serum-free media using traditional non-affinity chromatographic techniques, including ion exchange and size exclusion chromatography.
LFA-1 binding to ICAM-1 is monitored by first incubating sICAM-1 at 40 μg/mL in Dulbecco's phosphate buffered saline with calcium and magnesium, additional 2 mM MgCl2 and 0.1 mM PMSF (Diluting Buffer) in a 96-well plate for 30 min at room temperature. Plates are then blocked by the addition of 2% (w/v) bovine serum albumin in Diluting Buffer for 37° C. for 1 h. Blocking solution is removed from wells, and test compounds are diluted and then added followed by the addition of approximately 25 ng of immunoaffinity purified LFA-1. The LFA-1 is incubated in the presence of test compound and ICAM-1 at 37° C. for 1 h. Wells are washed 3 times with Diluting Buffer. The bound LFA-1 is detected by the addition of a polyclonal antibody directed against a peptide corresponding to the CD18 cytoplasmic tail in a 1:100 dilution with Diluting Buffer and 1% BSA and allowed to incubate for 45 min at 37° C. Wells are washed 3 times with Diluting Buffer and the bound polyclonal antibody is detected by the addition of a 1:4000 dilution of horse radish peroxidase conjugated to goat immunoglobulin directed against rabbit immunoglobulin. This reagent is allowed to incubate for 20 min at 37° C., wells are washed as above and the substrate for the horse radish peroxidase is added to each well to develop a quantitative colorimetric signal proportional to the amount of LFA-1 bound to sICAM-1. […] The lack of the addition of LFA-1 to the binding assay is used as a background control for all samples. A dose-response curve is obtained for all test compounds.

T1 sequence (P20701 26-1170): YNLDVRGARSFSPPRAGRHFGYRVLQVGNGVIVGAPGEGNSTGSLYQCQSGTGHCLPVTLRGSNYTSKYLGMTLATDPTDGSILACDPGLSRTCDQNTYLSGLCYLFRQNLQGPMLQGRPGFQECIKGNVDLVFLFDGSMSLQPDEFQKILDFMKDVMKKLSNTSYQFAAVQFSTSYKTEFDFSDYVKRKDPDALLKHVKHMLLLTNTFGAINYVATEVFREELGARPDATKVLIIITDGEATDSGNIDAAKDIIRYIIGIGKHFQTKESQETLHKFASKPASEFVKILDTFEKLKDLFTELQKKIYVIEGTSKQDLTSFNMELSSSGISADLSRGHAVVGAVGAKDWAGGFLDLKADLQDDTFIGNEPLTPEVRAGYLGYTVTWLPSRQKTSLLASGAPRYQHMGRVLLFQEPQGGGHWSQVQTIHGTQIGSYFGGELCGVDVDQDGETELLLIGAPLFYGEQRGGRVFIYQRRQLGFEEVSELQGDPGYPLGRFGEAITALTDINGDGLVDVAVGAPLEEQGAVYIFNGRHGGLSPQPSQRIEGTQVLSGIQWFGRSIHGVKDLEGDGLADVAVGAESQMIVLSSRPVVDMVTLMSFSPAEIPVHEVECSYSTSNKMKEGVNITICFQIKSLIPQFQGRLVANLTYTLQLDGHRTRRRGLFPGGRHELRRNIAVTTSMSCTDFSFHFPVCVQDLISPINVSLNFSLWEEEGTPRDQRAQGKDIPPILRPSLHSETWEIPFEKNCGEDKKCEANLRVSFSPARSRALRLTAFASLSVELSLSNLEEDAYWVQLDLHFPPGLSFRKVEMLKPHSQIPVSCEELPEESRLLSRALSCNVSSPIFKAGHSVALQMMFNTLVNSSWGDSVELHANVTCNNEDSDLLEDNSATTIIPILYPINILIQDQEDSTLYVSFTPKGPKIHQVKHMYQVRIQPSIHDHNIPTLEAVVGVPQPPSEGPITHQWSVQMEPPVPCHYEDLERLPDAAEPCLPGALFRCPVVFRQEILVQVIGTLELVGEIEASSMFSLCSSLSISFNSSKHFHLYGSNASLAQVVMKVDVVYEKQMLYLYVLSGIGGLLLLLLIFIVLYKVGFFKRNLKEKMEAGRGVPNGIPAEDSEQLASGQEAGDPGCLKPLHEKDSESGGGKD
T1 sequence (P05107 23-769): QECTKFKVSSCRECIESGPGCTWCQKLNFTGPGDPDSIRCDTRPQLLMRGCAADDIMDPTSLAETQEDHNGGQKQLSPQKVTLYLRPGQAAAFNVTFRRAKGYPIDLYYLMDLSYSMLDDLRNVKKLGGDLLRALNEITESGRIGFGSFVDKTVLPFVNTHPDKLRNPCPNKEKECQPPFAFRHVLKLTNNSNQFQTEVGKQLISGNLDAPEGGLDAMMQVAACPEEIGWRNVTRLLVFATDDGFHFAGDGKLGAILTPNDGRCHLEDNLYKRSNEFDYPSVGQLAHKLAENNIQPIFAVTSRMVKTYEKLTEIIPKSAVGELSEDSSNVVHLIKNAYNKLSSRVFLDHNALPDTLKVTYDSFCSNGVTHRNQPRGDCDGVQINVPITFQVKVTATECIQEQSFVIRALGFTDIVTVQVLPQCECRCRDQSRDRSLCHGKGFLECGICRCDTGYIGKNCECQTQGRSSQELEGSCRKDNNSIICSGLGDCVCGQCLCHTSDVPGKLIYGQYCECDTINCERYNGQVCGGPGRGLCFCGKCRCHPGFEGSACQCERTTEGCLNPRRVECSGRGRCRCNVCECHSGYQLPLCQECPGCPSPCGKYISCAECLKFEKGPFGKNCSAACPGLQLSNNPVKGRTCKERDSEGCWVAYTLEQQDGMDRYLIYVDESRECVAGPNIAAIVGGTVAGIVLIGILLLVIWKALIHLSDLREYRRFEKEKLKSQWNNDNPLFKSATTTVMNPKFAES

Row | Structure (SMILES) | Kd [1] | melting point
1 | COc1cccc2c1C(Cc1cccc(Br)c1)C(=O)N2c1cc(Cl)cc(Cl)c1 (centres unmarked) [Example 10, 3-(3-bromobenzyl)-1-(3,5-dichlorophenyl)-4-methoxy-1,3-dihydroindol-2-one] | 1080 nM | 142 to 144 °C
2 | O=C1C(Cc2ccccc2)c2c(O)cccc2N1c1cc(Cl)cc(Cl)c1 (centres unmarked) [Example 12, 3-benzyl-1-(3,5-dichlorophenyl)-4-hydroxy-1,3-dihydroindol-2-one] | 1310 nM | 181 to 185 °C
3 | CC1(Cc2ccc(Br)cc2)C(=O)N(c2cc(Cl)cc(Cl)c2)c2cccc(O)c21 (centres unmarked) [Example 6, 3-(4-bromobenzyl)-1-(3,5-dichlorophenyl)-4-hydroxy-3-methyl-1,3-dihydroindol-2-one] | 1790 nM | 225 to 227 °C
4 | O=C1C(Cc2ccc(Br)cc2)c2c(O)cccc2N1c1cc(Cl)cc(Cl)c1 (centres unmarked) [Example 17, 3-(4-bromobenzyl)-1-(3,5-dichlorophenyl)-4-hydroxy-1,3-dihydroindol-2-one] | 917 nM | 203 to 208 °C
5 | O=C1C(Cc2ccc(Br)cc2)c2cc(F)ccc2N1c1cc(Cl)cc(Cl)c1 (centres unmarked) [Example 7, 3-(4-bromobenzyl)-1-(3,5-dichlorophenyl)-5-fluoro-1,3-dihydroindol-2-one] | 2710 nM | 178 to 179 °C
6 | O=C1C(Cc2ccc(Br)cc2)c2ccccc2N1c1cc(Cl)cc(Cl)c1 (centres unmarked) [Example 1, 3-(4-Bromobenzyl)-1-(3,5-dichlorophenyl)-1,3-dihydroindol-2-one] | > 10000 nM | 139 to 142 °C
7 | CC1(Cc2ccccc2)C(=O)N(c2cc(Cl)cc(Cl)c2)c2cccc(O)c21 (centres unmarked) [Example 16, 3-benzyl-1-(3,5-dichlorophenyl)-4-hydroxy-3-methyl-1,3-dihydroindol-2-one] | 1440 nM | 165 to 166.5 °C
8 | COc1ccc2c(c1)C(Cc1ccccc1)C(=O)N2c1cc(Cl)cc(Cl)c1 (centres unmarked) [Example 13, 3-benzyl-1-(3,5-dichlorophenyl)-5-methoxy-1,3-dihydroindol-2-one] | > 10000 nM | 118 to 119 °C
9 | CC1(Cc2ccc(Br)cc2)C(=O)N(c2cc(Cl)cc(Cl)c2)c2ccccc21 (centres unmarked) [Example 2, 3-(4-Bromobenzyl)-1-(3,5-dichlorophenyl)-3-methyl-1,3-dihydro-indol-2-one] | > 10000 nM | 
10 | CC1(Cc2ccc(Br)cc2)C(=O)N(c2cc(Cl)cc(Cl)c2)c2ncccc21 (centres unmarked) [Example 3, 3-(4-Bromobenzyl)-1-(3,5-dichlorophenyl)-3-methyl-1,3-dihydropyrrolo[2,3-b]pyridin-2-one] | 375 nM | 
11 | O=C1C(Cc2ccccc2)c2ccccc2N1c1cc(Cl)cc(Cl)c1 (centres unmarked) [Example 15, 3-benzyl-1-(3,5-dichlorophenyl)-1,3-dihydroindol-2-one] | 4970 nM | 109 to 111 °C
12 | CC1(Cc2cccc(Br)c2)C(=O)N(c2cc(Cl)cc(Cl)c2)c2cccc(O)c21 (centres unmarked) [Example 11, 3-(3-bromobenzyl)-1-(3,5-dichlorophenyl)-4-hydroxy-3-methyl-1,3-dihydroindol-2-one] | 2540 nM | 225 to 227 °C
13 | CC1(Cc2ccc(C#N)cc2)C(=O)N(c2cc(Cl)cc(Cl)c2)c2ncccc21 (centres unmarked) [Example 5, 3-(4-cyanobenzyl)-1-(3,5-dichlorophenyl)-3-methyl-1,3-dihydropyrrolo[2,3-b]pyridin-2-one] | 3530 nM | 
14 | O=C(O)c1ccc2c(c1)N(c1cc(Cl)cc(Cl)c1)C(=O)C2Cc1ccc(Br)cc1 (centres unmarked) [Example 8, 3-(4-bromobenzyl)-1-(3,5-dichlorophenyl)-1,3-dihydroindol-2-one-6-carboxylic acid] | 4890 nM | 264 to 266 °C
15 | COc1cccc2c1C(Cc1ccccc1)C(=O)N2c1cc(Cl)cc(Cl)c1 (centres unmarked) [Example 9, 3-benzyl-1-(3,5-dichlorophenyl)-4-methoxy-1,3-dihydroindol-2-one] | 705 nM | 138 to 140 °C
16 | O=C1C(Cc2ccccc2)c2cc(O)ccc2N1c1cc(Cl)cc(Cl)c1 (centres unmarked) [Example 14, 3-benzyl-1-(3,5-dichlorophenyl)-5-hydroxy-1,3-dihydroindol-2-one] | > 10000 nM | 232 to 235 °C

Reference: patent publication US6414153B1, “1-phenylpydrrolidin-2-ones and -thiones and 1-(4-pyridyl)pydrrolidin-2-ones and -thiones which are useful in the treatment of inflammatory disease” (Boehringer Ingelheim Pharmaceuticals, Inc., priority 1999, dated 2002)
